Calls of active or inactive are those of the source. No cut-off for these calls is given here.
Tests used:
NCI-H1975 [1] = test: Antitumor activity against human NCI-H1975 cells xenografted in athymic nude BALB/c mouse assessed as tumor growth inhibition at 1 mg/kg, ip administered for 4 weeks relative to control; type: functional; details: 672 h, read-out: TGI
[2] = target: T1, DNA replication licensing factor MCM6 (Homo sapiens) (UniProt Q14566); test: Induction of ubiquitination of MCM6 in human NCI-H1975 cells incubated for 24 hrs by immunoblot analysis; type: cell-based
T1 sequence (whole entry): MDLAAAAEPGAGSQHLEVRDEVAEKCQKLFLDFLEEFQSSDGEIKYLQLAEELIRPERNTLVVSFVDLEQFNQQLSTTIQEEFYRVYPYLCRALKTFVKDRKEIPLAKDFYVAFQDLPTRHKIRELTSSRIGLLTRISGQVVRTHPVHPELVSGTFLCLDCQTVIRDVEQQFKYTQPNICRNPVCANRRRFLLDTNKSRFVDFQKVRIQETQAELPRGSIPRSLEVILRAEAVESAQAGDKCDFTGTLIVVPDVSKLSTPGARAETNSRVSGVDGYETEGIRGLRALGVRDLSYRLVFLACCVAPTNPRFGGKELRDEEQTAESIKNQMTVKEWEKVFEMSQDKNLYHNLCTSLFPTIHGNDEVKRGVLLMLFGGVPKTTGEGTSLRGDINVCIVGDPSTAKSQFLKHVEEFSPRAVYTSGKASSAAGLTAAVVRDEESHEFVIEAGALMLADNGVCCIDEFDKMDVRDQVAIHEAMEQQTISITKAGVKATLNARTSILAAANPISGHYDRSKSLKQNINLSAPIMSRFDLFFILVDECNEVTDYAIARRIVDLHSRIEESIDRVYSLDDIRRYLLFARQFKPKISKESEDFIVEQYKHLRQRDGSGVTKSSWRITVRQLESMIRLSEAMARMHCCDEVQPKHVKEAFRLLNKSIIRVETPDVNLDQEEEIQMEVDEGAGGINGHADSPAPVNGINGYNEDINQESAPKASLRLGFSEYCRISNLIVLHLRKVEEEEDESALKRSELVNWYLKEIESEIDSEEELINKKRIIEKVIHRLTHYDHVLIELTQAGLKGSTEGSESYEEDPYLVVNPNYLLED

[3] = target: T1, DNA replication licensing factor MCM6 (Homo sapiens); test: Induction of ubiquitination of MCM6 in human H3255 cells incubated for 24 hrs by immunoblot analysis; type: cell-based; details: NCI-H3255
[4] = target: DNA replication licensing factor MCM2 (Homo sapiens) (UniProt P49736); test: Induction of ubiquitination of MCM2 in human PC9 cells incubated for 24 hrs by immunoblot analysis; type: cell-based; details: PC-9
[5] = target: T1, DNA replication licensing factor MCM6 (Homo sapiens); test: Induction of ubiquitination of MCM6 in human PC9 cells incubated for 24 hrs by immunoblot analysis; type: cell-based; details: PC-9
[6] = target: T2, DNA replication licensing factor MCM3 (Homo sapiens) (UniProt P25205); test: Induction of ubiquitination of MCM3 in human NCI-H1975 cells incubated for 48 hrs by immunoblot analysis (reference value: 1); type: cell-based
T2 sequence (whole entry): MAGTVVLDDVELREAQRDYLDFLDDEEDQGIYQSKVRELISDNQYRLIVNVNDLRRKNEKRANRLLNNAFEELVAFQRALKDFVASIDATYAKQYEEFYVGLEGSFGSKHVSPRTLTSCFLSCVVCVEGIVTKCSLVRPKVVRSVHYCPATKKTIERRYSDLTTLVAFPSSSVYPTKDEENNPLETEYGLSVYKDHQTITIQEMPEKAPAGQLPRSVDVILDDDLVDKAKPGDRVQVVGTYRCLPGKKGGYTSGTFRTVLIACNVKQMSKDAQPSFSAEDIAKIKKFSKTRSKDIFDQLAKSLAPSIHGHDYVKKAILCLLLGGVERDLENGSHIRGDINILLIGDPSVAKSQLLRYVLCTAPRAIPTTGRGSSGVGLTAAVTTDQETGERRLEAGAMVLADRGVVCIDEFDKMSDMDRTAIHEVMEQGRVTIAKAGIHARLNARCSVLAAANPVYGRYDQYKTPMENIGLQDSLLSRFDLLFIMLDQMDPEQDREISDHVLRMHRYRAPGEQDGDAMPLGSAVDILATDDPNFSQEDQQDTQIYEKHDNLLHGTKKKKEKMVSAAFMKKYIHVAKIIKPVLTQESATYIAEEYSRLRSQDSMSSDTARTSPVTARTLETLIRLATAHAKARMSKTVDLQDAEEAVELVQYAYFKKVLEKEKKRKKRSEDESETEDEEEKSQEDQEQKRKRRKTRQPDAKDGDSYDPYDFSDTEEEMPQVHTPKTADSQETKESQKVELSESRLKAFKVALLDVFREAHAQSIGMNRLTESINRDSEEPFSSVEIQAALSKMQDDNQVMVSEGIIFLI

[7] = target: T3, DNA replication licensing factor MCM5 (Homo sapiens) (UniProt P33992); test: Induction of ubiquitination of MCM5 in human NCI-H1975 cells incubated for 24 hrs by immunoblot analysis (reference value: 1); type: cell-based
T3 sequence (whole entry): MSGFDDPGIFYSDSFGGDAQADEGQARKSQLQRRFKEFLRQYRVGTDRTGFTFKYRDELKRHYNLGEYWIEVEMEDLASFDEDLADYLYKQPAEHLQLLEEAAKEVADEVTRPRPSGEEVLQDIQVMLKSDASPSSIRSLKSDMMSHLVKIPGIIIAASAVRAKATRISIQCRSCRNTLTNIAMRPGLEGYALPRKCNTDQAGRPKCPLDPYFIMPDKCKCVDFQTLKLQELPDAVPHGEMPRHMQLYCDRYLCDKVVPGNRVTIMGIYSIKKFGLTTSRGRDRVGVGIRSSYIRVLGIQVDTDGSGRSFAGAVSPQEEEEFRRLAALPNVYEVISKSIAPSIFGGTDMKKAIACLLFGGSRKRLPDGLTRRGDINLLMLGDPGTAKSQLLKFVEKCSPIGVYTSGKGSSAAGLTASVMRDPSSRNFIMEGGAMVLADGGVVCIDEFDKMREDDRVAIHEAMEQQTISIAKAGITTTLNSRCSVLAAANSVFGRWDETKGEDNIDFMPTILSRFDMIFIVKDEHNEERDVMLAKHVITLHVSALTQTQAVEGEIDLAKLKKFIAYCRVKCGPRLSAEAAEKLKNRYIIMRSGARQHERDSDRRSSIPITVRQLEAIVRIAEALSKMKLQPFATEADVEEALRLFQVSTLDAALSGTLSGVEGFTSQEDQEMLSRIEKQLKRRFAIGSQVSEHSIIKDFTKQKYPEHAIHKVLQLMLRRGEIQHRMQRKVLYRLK

[8] = target: T3, DNA replication licensing factor MCM5 (Homo sapiens); test: Induction of ubiquitination of MCM5 in human NCI-H1975 cells incubated for 72 hrs by immunoblot analysis (reference value: 1); type: cell-based
NCI-H1975 [9] = test: Antiproliferative activity against human NCI-H1975 cells harboring FLAG-tagged MCM2 assessed as reduction in cell viability incubated for 72 hrs by SRB assay; type: functional, cell-based; details: NCI-H1975, 72 h
[10] = Selectivity index, ratio of IC50 for human bronchial epithelial cells to IC50 for human NCI-H1975 cells; type: toxicity; details: human bronchial epithelial cells versus NCI-H1975 cells, read-out: Ratio IC50

Sequence of DNA replication licensing factor MCM2 (Homo sapiens) (P49736 whole entry): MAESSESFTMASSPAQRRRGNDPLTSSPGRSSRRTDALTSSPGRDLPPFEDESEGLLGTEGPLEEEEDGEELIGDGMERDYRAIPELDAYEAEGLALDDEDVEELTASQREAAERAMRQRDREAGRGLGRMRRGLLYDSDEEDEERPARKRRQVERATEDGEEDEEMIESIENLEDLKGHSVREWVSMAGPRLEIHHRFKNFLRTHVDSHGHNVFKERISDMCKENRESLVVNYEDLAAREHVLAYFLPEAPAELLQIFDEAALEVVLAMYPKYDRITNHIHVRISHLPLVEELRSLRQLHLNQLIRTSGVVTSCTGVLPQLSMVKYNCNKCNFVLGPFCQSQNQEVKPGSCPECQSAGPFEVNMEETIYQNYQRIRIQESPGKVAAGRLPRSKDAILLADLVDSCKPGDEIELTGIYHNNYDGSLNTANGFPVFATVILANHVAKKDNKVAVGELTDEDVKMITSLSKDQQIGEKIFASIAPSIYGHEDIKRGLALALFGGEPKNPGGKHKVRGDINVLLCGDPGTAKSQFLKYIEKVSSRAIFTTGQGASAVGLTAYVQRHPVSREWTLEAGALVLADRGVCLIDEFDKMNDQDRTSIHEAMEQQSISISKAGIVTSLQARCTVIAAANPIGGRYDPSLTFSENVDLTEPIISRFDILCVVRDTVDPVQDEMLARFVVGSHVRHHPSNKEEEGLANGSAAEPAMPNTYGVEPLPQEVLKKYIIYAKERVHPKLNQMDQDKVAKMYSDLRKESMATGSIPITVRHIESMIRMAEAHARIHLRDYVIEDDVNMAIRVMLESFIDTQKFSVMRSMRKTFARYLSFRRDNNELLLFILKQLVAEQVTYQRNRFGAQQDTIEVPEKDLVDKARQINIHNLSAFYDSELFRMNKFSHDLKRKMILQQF

## Cc1oc2c(c1C(=O)NCCCn1ccnc1)C(=O)c1ccccc1C2=O
NCI-H1975 [1]
  inhibition in vivo at 1 mg/kg: 44%
[2]
  Activity: Dose-dependent effect
[3]
  Activity: Active
[4]
  Activity: Active
[5]
  Activity: Active
[6]
  Activity: 1.1
[7]
  Activity: 0.8
[8]
  Activity: 0.8
NCI-H1975 [9]
  IC50: 71 nM
[10]
  selectivity ratio: > 10
